Source: PubChem BioAssay AID256 (DTP/NCI, 2004)
Where “and” joins values, the source holds several entries; their conditions need not be identical. Identical values can stand only once. Toxic doses and inconclusive results are not listed. How the source made its calls: active means survival T/C of 150% or more; inactive means T/C below 125% in these data.

Tested on: CD2F1 mice, L1210 leukemia ip, survival T/C
Assay: NCI In Vivo Anticancer Drug Screen. Data for tumor model L1210 Leukemia (intraperitoneal) in CD2F1 (CDF1) mice
Conditions: endpoint: mean survival time, higher = longer survival
Summary of the method: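 Implant tumor; dose compound or vehicle; measure endpoint in both groups; report treated divided by control.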

[1] = dose: 50.0 mg/kg/injection, schedule: Q01DX009 (ip), vehicle: saline with Tween-80
[2] = dose: 100.0 mg/kg/injection, schedule: Q01DX009 (ip), vehicle: saline with Tween-80
[3] = dose: 200.0 mg/kg/injection, schedule: Q01DX009 (ip), vehicle: saline with Tween-80
[4] = dose: 50.0 mg/kg/injection, schedule: Q01DX009 (ip), vehicle: Klucel (hydroxypropylcellulose) (HPC)
[5] = dose: 100.0 mg/kg/injection, schedule: Q01DX009 (ip), vehicle: Klucel (hydroxypropylcellulose) (HPC)
[6] = dose: 200.0 mg/kg/injection, schedule: Q01DX009 (ip), vehicle: Klucel (hydroxypropylcellulose) (HPC)
[7] = dose: 100.0 mg/kg/injection, schedule: Q04DX003 (ip), vehicle: saline with Tween-80
[8] = dose: 200.0 mg/kg/injection, schedule: Q01DX001 (ip), vehicle: saline with Tween-80
[9] = dose: 200.0 mg/kg/injection, schedule: Q04DX003 (ip), vehicle: saline with Tween-80
[10] = dose: 400.0 mg/kg/injection, schedule: Q01DX001 (ip), vehicle: saline with Tween-80
[11] = dose: 400.0 mg/kg/injection, schedule: Q04DX003 (ip), vehicle: saline with Tween-80
[12] = dose: 100.0 mg/kg/injection, schedule: Q01DX001 (ip), vehicle: saline with Tween-80

Measured: T/C

C1=C[N-]c2c3c(ccc2=C1)=CC=C[N-]3.C1=C[N-]c2c3c(ccc2=C1)=CC=C[N-]3.[Cl][Ru][Cl]
inactive: dose: 3.13 mg/kg/injection, schedule: Q04DX003 (ip), vehicle: water 90 % of control | dose: 6.25 mg/kg/injection, schedule: Q04DX003 (ip), vehicle: water 90 % of control | dose: 12.5 mg/kg/injection, schedule: Q04DX003 (ip), vehicle: water 88 % of control

CC1C2C=CC(C2)C1C(=O)O (configuration not stated)
inactive: [1] 93 % of control | [2] 96 % of control and 98 % of control | [3] 100 % of control and 87 % of control

CCOc1ccc(N2C(=O)CSC2=S)cc1
inactive: [1] 95 % of control | [2] 87 % of control | [3] 93 % of control

Cn1cnc(C(=N)[Se])c1N
inactive: dose: 0.78 mg/kg/injection, schedule: Q01DX005 (ip), vehicle: water 90 % of control | dose: 1.56 mg/kg/injection, schedule: Q01DX005 (ip), vehicle: water 102 % of control | dose: 3.13 mg/kg/injection, schedule: Q01DX005 (ip), vehicle: water 100 % of control | dose: 6.25 mg/kg/injection, schedule: Q01DX005 (ip), vehicle: water 90 % of control | dose: 12.5 mg/kg/injection, schedule: Q01DX005 (ip), vehicle: water 100 % of control

CCOC(=O)C(OCC)c1ccccc1 (configuration not stated)
inactive: [2] 105 % of control | [3] 101 % of control | dose: 400.0 mg/kg/injection, schedule: Q01DX009 (ip), vehicle: saline with Tween-80 95 % of control

O=[N+]([O-])C=C(S)S
inactive: dose: 25.0 mg/kg/injection, schedule: Q01DX009 (ip), vehicle: Klucel (hydroxypropylcellulose) (HPC) 111 % of control | [4] 98 % of control | [5] 93 % of control | [6] 90 % of control

C1CC[N-]CC1.CC(=N\O)/C(C)=N/O.CC(=N\O)/C(C)=N/O.C[CH-]C(C)O.[Co+2]
inactive: dose: 6.25 mg/kg/injection, schedule: Q04DX003 (ip), vehicle: saline 97 % of control

Cc1c2ccccc2c(C)c2c1ccc1ccccc12
inactive: dose: 25.0 mg/kg/injection, schedule: Q01DX009 (ip), vehicle: saline with Tween-80 106 % of control | [7] 106 % of control | dose: 125.0 mg/kg/injection, schedule: Q04DX003 (ip), vehicle: Klucel (hydroxypropylcellulose) (HPC) 121 % of control

CC(O)C1OC(n2cnc3c(N)ncnc32)CC1N (configuration not stated)
inactive: dose: 12.5 mg/kg/injection, schedule: Q01DX005 (ip), vehicle: distilled water + Tween-80 101 % of control | dose: 25.0 mg/kg/injection, schedule: Q01DX005 (ip), vehicle: distilled water + Tween-80 103 % of control | dose: 50.0 mg/kg/injection, schedule: Q01DX005 (ip), vehicle: distilled water + Tween-80 100 % of control | dose: 100.0 mg/kg/injection, schedule: Q01DX005 (ip), vehicle: distilled water + Tween-80 100 % of control | dose: 200.0 mg/kg/injection, schedule: Q01DX005 (ip), vehicle: distilled water + Tween-80 100 % of control

CCOC(=O)C(N)Cc1ccc(O)cc1 (configuration not stated)
inactive: dose: 100.0 mg/kg/injection, schedule: Q04DX003 (ip), vehicle: other 102 % of control | dose: 200.0 mg/kg/injection, schedule: Q04DX003 (ip), vehicle: other 100 % of control | dose: 400.0 mg/kg/injection, schedule: Q04DX003 (ip), vehicle: other 97 % of control

CN1CC=C(c2ccccc2)CC1
inactive: dose: 18.8 mg/kg/injection, schedule: Q04DX003 (ip), vehicle: saline 102 % of control | dose: 37.5 mg/kg/injection, schedule: Q04DX003 (ip), vehicle: saline 104 % of control | dose: 75.0 mg/kg/injection, schedule: Q01DX001 (ip), vehicle: saline 100 % of control

O=P(O)(O)c1ccc(Oc2ccccc2)cc1
inactive: dose: 50.0 mg/kg/injection, schedule: Q04DX003 (ip), vehicle: saline 102 % of control | dose: 100.0 mg/kg/injection, schedule: Q04DX003 (ip), vehicle: saline 93 % of control | dose: 200.0 mg/kg/injection, schedule: Q04DX003 (ip), vehicle: saline 103 % of control

O=C(N/N=C/c1ccc2c(c1)CCC2)c1cccc([N+](=O)[O-])c1
inactive: [7] 91 % of control | [8] 94 % of control | [9] 94 % of control | [10] 101 % of control | [11] 106 % of control

Cc1cc(Br)ccc1C(=O)O
inactive: [12] 94 % of control | [8] 91 % of control | [10] 102 % of control

O=C(C(=O)c1ccc(Cl)c(Cl)c1)c1ccc(Cl)c(Cl)c1
inactive: [5] 90 % of control | [6] 91 % of control | dose: 400.0 mg/kg/injection, schedule: Q01DX009 (ip), vehicle: Klucel (hydroxypropylcellulose) (HPC) 96 % of control

OC(c1ccccc1Cl)C(Cl)(Cl)Cl (configuration not stated)
inactive: [4] 96 % of control | [5] 93 % of control | [6] 104 % of control

Cc1nccc(N)n1
inactive: [12] 89 % of control | [8] 90 % of control | [10] 90 % of control

O=C1c2ccccc2C(=O)N1CCc1c[nH]c2ccccc12
inactive: [12] 102 % of control | [8] 104 % of control | [10] 104 % of control

O=C(Nc1ccccc1C(F)(F)F)Nc1cccc2ccccc12
inactive: [7] 95 % of control | [9] 104 % of control | [11] 95 % of control
